Data published in patent US20220009920A1 (GB005, Inc., priority 2020, published 2022).

What was measured:
Assay in all cases: Large panel kinase profiling
Format in all cases: biochemical
Conditions in all cases: 1 μM test article, 1 mM ATP
[1] = target: AURKB/AURB (Homo sapiens, UniProt Q96GD4)
In short: (§1)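 Fluorescence intensity (Ex 360 nm, Em 485 nm) was monitored continuously, once per minute, in PhosphoSens CSox-Sensor kinase reactions held at 30° C. Compound was present at 1 μM and ATP at 1 mM.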

[2] = target: T1, CSNK1E/CK1E (Homo sapiens, UniProt P49674)
T1 construct: AssayQuant Technologies, Inc. (service laboratory)
T1 sequence (P49674 whole entry): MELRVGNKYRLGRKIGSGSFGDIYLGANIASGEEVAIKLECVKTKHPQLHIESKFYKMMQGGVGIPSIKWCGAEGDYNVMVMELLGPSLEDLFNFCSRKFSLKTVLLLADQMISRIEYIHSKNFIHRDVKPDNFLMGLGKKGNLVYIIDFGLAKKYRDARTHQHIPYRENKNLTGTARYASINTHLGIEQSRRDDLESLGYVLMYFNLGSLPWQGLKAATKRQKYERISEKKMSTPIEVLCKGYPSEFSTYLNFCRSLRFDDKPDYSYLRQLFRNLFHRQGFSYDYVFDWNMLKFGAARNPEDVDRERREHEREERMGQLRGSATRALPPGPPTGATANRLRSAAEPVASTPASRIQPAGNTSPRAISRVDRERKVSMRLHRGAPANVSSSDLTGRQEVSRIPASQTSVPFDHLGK
In short: as §1

[3] = target: T2, MAP4K2/GCK (Homo sapiens, UniProt Q12851)
T2 construct: AssayQuant Technologies, Inc. (service provider)
T2 sequence (Q12851 1-820): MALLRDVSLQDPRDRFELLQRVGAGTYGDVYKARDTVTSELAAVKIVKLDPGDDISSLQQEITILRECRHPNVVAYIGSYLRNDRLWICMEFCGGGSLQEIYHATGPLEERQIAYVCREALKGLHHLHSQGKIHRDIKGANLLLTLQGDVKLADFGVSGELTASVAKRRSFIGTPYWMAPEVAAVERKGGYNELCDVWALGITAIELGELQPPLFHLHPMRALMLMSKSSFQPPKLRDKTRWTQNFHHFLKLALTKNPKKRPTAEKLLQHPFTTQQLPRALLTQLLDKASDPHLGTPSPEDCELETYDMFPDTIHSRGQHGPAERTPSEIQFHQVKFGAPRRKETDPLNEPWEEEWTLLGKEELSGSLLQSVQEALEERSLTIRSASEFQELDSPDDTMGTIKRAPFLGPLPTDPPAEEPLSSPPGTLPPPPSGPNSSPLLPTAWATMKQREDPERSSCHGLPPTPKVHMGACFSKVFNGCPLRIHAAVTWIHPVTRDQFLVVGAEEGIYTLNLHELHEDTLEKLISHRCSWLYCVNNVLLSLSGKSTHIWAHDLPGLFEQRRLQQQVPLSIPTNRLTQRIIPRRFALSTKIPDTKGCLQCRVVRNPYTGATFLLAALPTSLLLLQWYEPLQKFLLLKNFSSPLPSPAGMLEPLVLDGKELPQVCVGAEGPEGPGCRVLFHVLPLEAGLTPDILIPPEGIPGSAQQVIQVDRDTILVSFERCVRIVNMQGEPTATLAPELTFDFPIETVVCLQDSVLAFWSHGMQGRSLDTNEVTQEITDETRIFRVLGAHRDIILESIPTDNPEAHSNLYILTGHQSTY
In short: as §1

[4] = target: T3, RPS6KA6/RSK4 (Homo sapiens, UniProt Q9UK32)
T3 construct: AssayQuant Technologies, Inc. (contract assay)
T3 sequence (Q9UK32 whole entry): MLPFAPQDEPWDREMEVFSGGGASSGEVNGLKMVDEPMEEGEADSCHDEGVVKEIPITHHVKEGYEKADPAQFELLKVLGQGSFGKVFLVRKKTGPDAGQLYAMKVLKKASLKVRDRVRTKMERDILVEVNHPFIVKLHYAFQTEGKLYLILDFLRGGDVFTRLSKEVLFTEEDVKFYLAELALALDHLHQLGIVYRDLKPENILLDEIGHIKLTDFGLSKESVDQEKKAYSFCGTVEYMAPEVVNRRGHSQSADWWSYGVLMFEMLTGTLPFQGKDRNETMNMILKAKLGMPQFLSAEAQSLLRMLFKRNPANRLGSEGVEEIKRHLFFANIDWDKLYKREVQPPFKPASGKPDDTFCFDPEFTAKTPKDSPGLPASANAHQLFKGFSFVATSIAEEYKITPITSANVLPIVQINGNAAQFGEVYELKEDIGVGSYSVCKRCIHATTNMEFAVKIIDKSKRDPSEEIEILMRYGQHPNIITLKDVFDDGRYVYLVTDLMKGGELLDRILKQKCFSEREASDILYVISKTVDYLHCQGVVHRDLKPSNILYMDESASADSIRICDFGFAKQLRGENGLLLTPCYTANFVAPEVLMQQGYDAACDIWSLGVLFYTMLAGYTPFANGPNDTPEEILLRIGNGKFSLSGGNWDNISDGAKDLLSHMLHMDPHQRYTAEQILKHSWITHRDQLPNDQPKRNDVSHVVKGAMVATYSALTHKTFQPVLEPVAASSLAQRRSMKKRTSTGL
In short: as §1

[5] = target: T4, CDK18 (Homo sapiens, UniProt Q07002)
T4 construct: AssayQuant Technologies, Inc. (ran the panel)
T4 sequence (Q07002 whole entry, species assumed): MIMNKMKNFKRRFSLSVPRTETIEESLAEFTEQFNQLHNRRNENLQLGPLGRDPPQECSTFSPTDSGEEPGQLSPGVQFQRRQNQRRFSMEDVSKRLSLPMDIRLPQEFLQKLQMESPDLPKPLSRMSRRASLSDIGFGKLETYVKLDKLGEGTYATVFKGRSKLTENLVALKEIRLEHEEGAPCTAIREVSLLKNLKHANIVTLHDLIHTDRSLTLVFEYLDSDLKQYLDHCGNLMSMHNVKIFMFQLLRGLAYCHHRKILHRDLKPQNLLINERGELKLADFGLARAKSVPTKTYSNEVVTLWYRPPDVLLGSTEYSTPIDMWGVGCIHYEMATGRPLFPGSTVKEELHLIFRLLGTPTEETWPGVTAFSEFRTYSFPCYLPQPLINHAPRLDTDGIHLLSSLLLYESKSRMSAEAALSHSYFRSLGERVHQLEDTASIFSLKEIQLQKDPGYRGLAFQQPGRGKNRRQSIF
T4 sequence (Q8ND76 whole entry partner, species assumed): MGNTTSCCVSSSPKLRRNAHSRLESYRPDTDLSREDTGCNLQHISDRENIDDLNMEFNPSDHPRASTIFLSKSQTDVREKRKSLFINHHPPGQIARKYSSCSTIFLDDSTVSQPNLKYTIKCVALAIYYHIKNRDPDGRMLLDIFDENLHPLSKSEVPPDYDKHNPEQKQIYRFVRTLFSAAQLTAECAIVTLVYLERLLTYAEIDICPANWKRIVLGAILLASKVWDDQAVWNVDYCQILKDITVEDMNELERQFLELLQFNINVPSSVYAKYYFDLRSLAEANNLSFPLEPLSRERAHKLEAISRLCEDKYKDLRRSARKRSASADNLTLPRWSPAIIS
In short: as §1

[6] = target: T5, MAP4K1/HPK1 (Homo sapiens, UniProt Q92918)
T5 construct: AssayQuant Technologies, Inc. (service provider)
T5 sequence (Q92918 whole entry): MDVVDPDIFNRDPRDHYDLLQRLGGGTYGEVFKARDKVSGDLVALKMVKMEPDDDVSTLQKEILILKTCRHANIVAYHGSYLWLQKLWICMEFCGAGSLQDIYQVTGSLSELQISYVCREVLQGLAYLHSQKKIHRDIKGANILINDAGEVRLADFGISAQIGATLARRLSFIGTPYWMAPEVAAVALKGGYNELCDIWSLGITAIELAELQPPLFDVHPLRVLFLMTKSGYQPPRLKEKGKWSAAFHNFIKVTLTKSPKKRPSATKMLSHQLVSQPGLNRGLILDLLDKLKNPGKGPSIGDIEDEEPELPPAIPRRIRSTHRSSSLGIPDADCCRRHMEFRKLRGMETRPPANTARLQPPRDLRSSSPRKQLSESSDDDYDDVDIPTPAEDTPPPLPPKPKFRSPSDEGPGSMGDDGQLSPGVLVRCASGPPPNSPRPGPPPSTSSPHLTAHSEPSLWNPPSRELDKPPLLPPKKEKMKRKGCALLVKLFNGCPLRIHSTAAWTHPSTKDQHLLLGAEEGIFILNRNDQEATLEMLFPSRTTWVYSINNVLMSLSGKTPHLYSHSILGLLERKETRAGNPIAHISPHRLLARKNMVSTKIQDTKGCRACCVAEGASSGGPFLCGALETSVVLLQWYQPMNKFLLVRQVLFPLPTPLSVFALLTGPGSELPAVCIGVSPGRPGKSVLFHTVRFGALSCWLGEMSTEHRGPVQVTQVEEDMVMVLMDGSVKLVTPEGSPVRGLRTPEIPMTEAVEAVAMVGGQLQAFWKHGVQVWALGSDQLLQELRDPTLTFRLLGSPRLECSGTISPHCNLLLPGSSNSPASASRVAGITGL
In short: as §1

[7] = target: T6, CDK3/E1 (Homo sapiens, UniProt Q00526)
T6 construct: AssayQuant Technologies, Inc. (ran the panel)
T6 sequence (Q00526 whole entry, species assumed): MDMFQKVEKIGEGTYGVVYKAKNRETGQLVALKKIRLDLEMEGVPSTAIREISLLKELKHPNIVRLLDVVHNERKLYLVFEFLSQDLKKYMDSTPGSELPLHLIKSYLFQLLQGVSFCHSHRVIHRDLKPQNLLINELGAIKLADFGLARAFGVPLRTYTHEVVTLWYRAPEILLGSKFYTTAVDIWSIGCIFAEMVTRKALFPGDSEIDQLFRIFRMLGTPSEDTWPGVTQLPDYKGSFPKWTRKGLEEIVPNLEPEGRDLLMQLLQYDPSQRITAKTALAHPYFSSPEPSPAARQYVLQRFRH
T6 sequence (P24864 whole entry partner, species assumed): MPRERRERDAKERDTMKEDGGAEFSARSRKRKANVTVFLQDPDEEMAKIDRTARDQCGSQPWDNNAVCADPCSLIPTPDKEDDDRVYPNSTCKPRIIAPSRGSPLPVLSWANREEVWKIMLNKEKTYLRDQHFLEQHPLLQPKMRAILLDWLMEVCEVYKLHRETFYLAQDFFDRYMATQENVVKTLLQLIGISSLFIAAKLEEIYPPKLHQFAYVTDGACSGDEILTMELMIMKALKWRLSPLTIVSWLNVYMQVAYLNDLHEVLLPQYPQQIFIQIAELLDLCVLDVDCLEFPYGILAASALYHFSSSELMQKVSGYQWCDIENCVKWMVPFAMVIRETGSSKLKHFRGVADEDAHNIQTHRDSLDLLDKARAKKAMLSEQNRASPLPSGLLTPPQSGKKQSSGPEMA
In short: as §1

[8] = target: T7, MAP3K2 (Homo sapiens, UniProt Q9Y2U5)
T7 construct: AssayQuant Technologies, Inc. (service provider)
T7 sequence (Q9Y2U5 1-619): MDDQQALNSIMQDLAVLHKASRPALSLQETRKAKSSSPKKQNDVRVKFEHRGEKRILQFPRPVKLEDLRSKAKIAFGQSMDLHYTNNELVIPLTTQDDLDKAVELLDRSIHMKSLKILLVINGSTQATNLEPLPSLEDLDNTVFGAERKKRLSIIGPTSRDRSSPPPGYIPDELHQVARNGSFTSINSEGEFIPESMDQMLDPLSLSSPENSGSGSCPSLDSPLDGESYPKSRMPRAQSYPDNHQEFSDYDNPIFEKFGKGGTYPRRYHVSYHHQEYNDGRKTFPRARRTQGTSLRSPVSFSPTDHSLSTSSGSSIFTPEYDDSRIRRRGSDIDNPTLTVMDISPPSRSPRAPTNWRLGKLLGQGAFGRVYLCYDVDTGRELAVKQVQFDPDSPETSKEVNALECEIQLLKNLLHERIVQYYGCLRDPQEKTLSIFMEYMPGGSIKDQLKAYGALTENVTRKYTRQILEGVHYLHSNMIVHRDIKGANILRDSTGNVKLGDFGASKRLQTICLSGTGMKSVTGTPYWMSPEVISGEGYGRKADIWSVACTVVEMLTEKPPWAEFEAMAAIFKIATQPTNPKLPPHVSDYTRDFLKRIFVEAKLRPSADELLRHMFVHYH
In short: as §1

[9] = target: T8, GRK7 (Homo sapiens, UniProt Q8WTQ7)
T8 construct: AssayQuant Technologies, Inc. (service provider)
T8 sequence (Q8WTQ7 1-553): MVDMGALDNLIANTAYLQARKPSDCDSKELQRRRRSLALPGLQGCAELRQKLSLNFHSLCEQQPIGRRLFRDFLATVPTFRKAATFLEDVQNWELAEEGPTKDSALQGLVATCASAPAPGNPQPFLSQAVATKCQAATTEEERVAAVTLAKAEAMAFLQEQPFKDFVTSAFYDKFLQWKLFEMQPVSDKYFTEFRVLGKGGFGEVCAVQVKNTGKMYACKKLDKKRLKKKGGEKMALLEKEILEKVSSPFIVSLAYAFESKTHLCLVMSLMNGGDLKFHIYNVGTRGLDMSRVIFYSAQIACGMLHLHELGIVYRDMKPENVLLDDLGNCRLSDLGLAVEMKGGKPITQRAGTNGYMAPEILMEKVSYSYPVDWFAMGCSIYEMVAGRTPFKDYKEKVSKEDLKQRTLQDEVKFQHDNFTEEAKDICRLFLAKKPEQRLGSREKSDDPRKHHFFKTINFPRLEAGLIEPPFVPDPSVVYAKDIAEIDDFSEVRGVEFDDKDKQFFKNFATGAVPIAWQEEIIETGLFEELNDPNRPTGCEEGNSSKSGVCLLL
In short: as §1

[10] = target: T9, MELK (Homo sapiens, UniProt Q14680)
T9 construct: AssayQuant Technologies, Inc. (assay service)
T9 sequence (Q14680 whole entry, species assumed): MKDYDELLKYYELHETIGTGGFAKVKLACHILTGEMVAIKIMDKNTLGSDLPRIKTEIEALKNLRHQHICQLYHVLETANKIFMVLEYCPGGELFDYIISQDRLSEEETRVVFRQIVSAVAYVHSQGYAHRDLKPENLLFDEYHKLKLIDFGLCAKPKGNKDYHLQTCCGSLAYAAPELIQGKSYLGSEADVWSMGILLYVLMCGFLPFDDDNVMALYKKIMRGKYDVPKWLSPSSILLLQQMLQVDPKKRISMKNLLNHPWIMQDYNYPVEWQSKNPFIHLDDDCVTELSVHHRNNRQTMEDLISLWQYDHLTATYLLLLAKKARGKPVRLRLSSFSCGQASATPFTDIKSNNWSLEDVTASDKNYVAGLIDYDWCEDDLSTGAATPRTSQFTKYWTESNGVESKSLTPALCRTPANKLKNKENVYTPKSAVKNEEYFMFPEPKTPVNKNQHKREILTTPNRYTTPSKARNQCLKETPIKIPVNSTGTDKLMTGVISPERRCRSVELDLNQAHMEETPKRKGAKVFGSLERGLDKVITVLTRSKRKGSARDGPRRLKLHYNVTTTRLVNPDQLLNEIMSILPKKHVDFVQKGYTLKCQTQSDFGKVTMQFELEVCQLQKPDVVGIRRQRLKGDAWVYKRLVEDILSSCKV
In short: as §1

Chain of AURKB/AURB (Q96GD4 whole entry): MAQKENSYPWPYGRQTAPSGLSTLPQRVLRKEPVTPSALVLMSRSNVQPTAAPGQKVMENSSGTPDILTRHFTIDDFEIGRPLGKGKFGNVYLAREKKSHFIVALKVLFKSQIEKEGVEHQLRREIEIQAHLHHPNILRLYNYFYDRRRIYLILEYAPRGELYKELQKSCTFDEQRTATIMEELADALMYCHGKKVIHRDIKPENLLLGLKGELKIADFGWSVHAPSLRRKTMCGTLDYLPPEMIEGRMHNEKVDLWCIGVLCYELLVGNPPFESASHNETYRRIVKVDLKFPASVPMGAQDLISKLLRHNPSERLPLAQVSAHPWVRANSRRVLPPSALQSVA

SMILES	inhibition at 1 µM [1] [%]	inhibition at 1 µM [2] [%]	inhibition at 1 µM [3] [%]	inhibition at 1 µM [4] [%]	inhibition at 1 µM [5] [%]	inhibition at 1 µM [6] [%]	inhibition at 1 µM [7] [%]	inhibition at 1 µM [8] [%]	inhibition at 1 µM [9] [%]	inhibition at 1 µM [10] [%]
C=CC(=O)N1CCCC(c2c(F)cc(C(N)=O)c3[nH]c4c(c23)CCCCC4)C1 (single isomer, unassigned) [Compound 5-6]	-19	-4.2	-46.6	-5.8	19	-3.2	-15.3	-19	1.3	-27.6
C=CC(=O)N1CCC[C@@H](c2c(F)cc(C(N)=O)c3[nH]c4c(c23)CCC4)C1 [Compound 10-2, (S)-8-(1-acryloylpiperidin-3-yl)-7-fluoro-1,2,3,4-tetrahydrocyclo-penta[b]indole-5-carboxamide]	-14.9	15.1	-1.3	0.3	2	0.8	-7.7	15.7	-33	11.1
C=CC(=O)N1CCC[C@@H](c2c(F)cc(C(N)=O)c3[nH]c4c(c23)CC2(CC4)CC2)C1 [Compound 6-2, (S)-5-(1-acryloylpiperidin-3-yl)-6-fluoro-1,2,4,9-tetrahydrospiro[carbazole-3,1′-cyclopropane]-8-carboxamide]	-11.5	-7.4	-1.3	-14.8	-15	16.3	13.7	-6.6	10.9	-14.5
